From patent US9708308B2, “Factor IXa inhibitors” (Merck Sharp & Dohme Corp., priority 2012, dated 2017) come the findings set out here.

pIC50: −log10 of the molar value.

Chain of Factor IXa (P00740 227-461 limits assumed): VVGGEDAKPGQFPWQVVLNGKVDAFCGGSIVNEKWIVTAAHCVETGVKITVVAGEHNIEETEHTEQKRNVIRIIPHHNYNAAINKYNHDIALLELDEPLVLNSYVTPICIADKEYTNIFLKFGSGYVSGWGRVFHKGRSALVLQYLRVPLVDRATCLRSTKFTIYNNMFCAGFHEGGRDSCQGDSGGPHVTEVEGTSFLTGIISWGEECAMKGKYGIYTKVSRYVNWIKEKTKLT
Chain of Factor IXa (P00740 47-191 partner limits assumed): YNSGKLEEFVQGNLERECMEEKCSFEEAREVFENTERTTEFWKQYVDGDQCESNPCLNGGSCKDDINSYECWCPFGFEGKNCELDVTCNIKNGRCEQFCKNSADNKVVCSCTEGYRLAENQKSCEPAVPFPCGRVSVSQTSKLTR

This assay has as its target Factor IXa (Homo sapiens, UniProt P00740). The assay can be described thus: Determination of inhibitory activity against Factor IXa (cleavage of fluorescent peptide substrate). The format is biochemical. The note with it: cleavage of fluorescent peptide CH3SO2-D-CHG-Gly-Arg-AFC, release of AFC; read-out: FIXa IC50. A digest of the protocol: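 Factor IXa activity followed via cleavage of CH3SO2-D-CHG-Gly-Arg-AFC, releasing AFC. Fluorescence read at excitation 405 nm, emission 510 nm.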
Turning to `C[C@H]1CN(c2ccn(-c3ccnc(C(F)(F)F)c3)n2)C(=O)[C@@H]([C@@H](O)C(=O)Nc2ccc3c(N)noc3c2)O1` [Example 169, (R)—N-(3-aminobenzo[d]isoxazol-6-yl)-2-hydroxy-2-((2R,6S)-6-methyl-3-oxo-4-(1-(2-(trifluoromethyl)pyridin-4-yl)-1H-pyrazol-3-yl)morpholin-2-yl)acetamide], the negative-log IC50 (pIC50) was 8.05.
For `C[C@@H]1CN(c2ccn(-c3ccnc(C(F)(F)F)c3)n2)C(=O)[C@@H]([C@@H](O)C(=O)Nc2ccc3c(N)noc3c2)O1` [Example 170, (R)—N-(3-aminobenzo[d]isoxazol-6-yl)-2-hydroxy-2-((2R,6R)-6-methyl-3-oxo-4-(1-(2-(trifluoromethyl)pyridin-4-yl)-1H-pyrazol-3-yl)morpholin-2-yl)acetamide] the value was 8.62; for `COc1cc(-n2ccc(N3CC(C)(C)O[C@H]([C@@H](O)C(=O)Nc4ccc5c(N)noc5c4)C3=O)n2)ccn1` [Example 171, (R)—N-(3-aminobenzo[d]isoxazol-6-yl)-2-hydroxy-2-((R)-4-(1-(2-methoxypyridin-4-yl)-1H-pyrazol-3-yl)-6,6-dimethyl-3-oxomorpholin-2-yl)acetamide], 7.68; for `CC1(C)CN(c2ccn(-c3ccnnc3)n2)C(=O)[C@@H]([C@@H](O)C(=O)Nc2ccc3c(N)noc3c2)O1` [Example 172, (R)—N-(3-aminobenzo[d]isoxazol-6-yl)-2-((R)-6,6-dimethyl-3-oxo-4-(1-(pyridazin-4-yl)-1H-pyrazol-3-yl)morpholin-2-yl)-2-hydroxyacetamide], 8.74.
Take `CC1(C)CN(c2nn(-c3ccnnc3)cc2F)C(=O)[C@@H]([C@@H](O)C(=O)Nc2ccc3c(N)noc3c2)O1` [Example 173, (R)—N-(3-aminobenzo[d]isoxazol-6-yl)-2-((R)-4-(4-fluoro-1-(pyridazin-4-yl)-1H-pyrazol-3-yl)-6,6-dimethyl-3-oxomorpholin-2-yl)-2-hydroxyacetamide]: the pIC50 was 7.68.
Take `COc1cc(-n2ccc(N3CC(C)(C)O[C@H]([C@@H](O)C(=O)Nc4ccc5c(N)noc5c4)C3=O)n2)cnn1` [Example 174, (R)—N-(3-aminobenzo[d]isoxazol-6-yl)-2-hydroxy-2-((R)-4-(1-(6-methoxypyridazin-4-yl)-1H-pyrazol-3-yl)-6,6-dimethyl-3-oxomorpholin-2-yl)acetamide]: the negative logarithm of the IC50 (pIC50) was 8.56.
